Experimental data as given in US20110172184A1, “ANTITUMOR AGENT CONTAINING 4 - [[3,5 - BIS ([…]) BENZOYL] AMINO] BENZOIC ACID” (TAIHO PHARMACEUTICAL CO., LTD., priority 2008, published 2011).

System: human liver cancer cell line JHH-7
Assay: Antitumor effect (tumor weight T/C) on human liver cancer cell line JHH-7 transplanted into the left lateral liver lobe of nude mice
Format: in vivo, mouse
Conditions: tumor weight on 15th day
Experimental: Sorafenib was weighed at every time of use, and a liquid for administration was prepared. […] BALE/cA Jcl-nu male nude mice (Clea Japan, Inc.) were used as the efficacy test animals.
On the 15th day after the initiation of administration, the mice were killed by bleeding under ether anesthesia, subsequently tumors formed in the left lateral liver lobe were extracted, and the weight of the tumors was measured. The tumor growth rate (%) was calculated by the formula shown below, and the T/C value of each of the drug administered groups was calculated, while the average tumor weight of the non-drug administered control group was taken as 100%. This T/C value was used as an index of the antitumor effect. The statistical significance of the single drug administered groups was determined by Welch's two-tailed test, and the statistical significance of the effect synergizing action obtained by combined use was determined by the intersection union test based on Welch's two-tailed test.
Tumor growth rate (%)=T/C×100
T: Average tumor weight of a group with administration of the test compound
C: Average tumor weight of a group without administration of the test compound
(§1) On the 11th day after the transplantation, the animals were grouped into seven animals per group, and the treatment experiment was initiated. Doxorubicin was administered such that 10 mg/kg, which is the maximum tolerated dose for a mouse, was administered one time intravenously. Sorafenib was orally administered once a day for 14 consecutive days.
as §1, with “Gemcitabine” for “Doxorubicin”, “120” for “10”, “intraperitoneally four times in total at an interval of 3 days.” for “one time intravenously.”

## C[Si](C)(C)c1cc(C(=O)Nc2ccc(C(=O)O)cc2)cc([Si](C)(C)C)c1 [compound 1, 4-[[3,5-bis(trimethylsilyl)benzoyl]amino]benzoic acid]
Pharmacological Test Example 1, compound 1 single drug, 2 mg/kg orally once a day for 14 days
  T/C value (tumor growth rate): 51%

## CNC(=O)c1cc(Oc2ccc(NC(=O)Nc3ccc(Cl)c(C(F)(F)F)c3)cc2)ccn1 [sorafenib, N-(4-chloro-3-(trifluoromethyl)phenyl)-N′-(4-(2-(N-methylcarbamoyl)-4-pyridyloxy)phenyl)urea]
Comparative Example 1, sorafenib single drug, orally once a day for 14 days
  T/C value (tumor growth rate): 62%
Comparative Example 2, sorafenib single drug, orally once a day for 14 days
  T/C value (tumor growth rate): 60%
Pharmacological Test Example 1, sorafenib single drug, 10 mg/kg orally once a day for 14 days
  T/C value (tumor growth rate): 65%

## Nc1ccn([C@@H]2O[C@H](CO)[C@@H](O)C2(F)F)c(=O)n1 [gemcitabine]
Comparative Example 2, gemcitabine single drug, 120 mg/kg intraperitoneally four times at an interval of 3 days
  T/C value (tumor growth rate): 47%

## COc1cccc2c1C(=O)c1c(O)c3c(c(O)c1C2=O)C[C@@](O)(C(=O)CO)C[C@@H]3O[C@H]1C[C@H](N)[C@H](O)[C@H](C)O1 [doxorubicin]
Comparative Example 1, doxorubicin single drug, 10 mg/kg one time intravenously
  T/C value (tumor growth rate): 70%
